These results are taken from patent publication US6908904B2, “Pharmaceutical preparation and method for treatment of diabetes” (priority 2000, dated 2005).

Data set [1] relates to T-cell response to insulin. The data set can be described thus: T-cell response to insulin. It counts as cell-based. As to conditions: sulfatide in combination with insulin. The text has this: The fact that sulfatide is processed through the same intracellular route as insulin further supports the findings according to the invention. Sulfatide is involved in normal processing of insulin, from proinsulin to secreted monomeric insulin. It is involved in the folding and oxidation of proinsulin, and is thus required for insulin formation, it is involved in the preservation of insulin crystals in secretory granules, and is thus required for the storage of the insulin pool, prevents deterioration and fibril formation, and it is involved in the transformation of insulin from hexamer via dimer to monomer form at secretion, and this last conversion to monomer is required for biological activity. Furthermore, sulfatide might be needed in combination with insulin in order to affect the insulin receptors in a proper way and to avoid development of insulin resistance.

Data set [2] can be described thus: uptake of radiolabeled sulfatide analogues in liver after intraperitoneal injection. In kind it is in vivo. Particulars: 150 nmol i.p., ob/ob mice, FIG. 6A; for degradation or accumulation in liver, 6 h vs 24 h: 6 h and 24 h after i.p.; for uptake in liver: tritium-labeled, scintillation counting. The source says: (§1) Native sulfatide isolated from pig brain and structurally characterized by mass spectrometry was modified with regard to the fatty acid composition and tritiated in the sphingosine base. These analogues were administrated intraperitoneally to diabetic ob/ob mice and their uptake in liver and pancreas analyzed after lipid extraction of dissected organs. The aim was to explore whether the exogenously administrated sulfatide was taken up by pancreas and thereby open a possibility to substitute for the quantitative and qualitative alterations of sulfatide seen in the diabetes type 2 models.
(§2) Sulfatide was tritium labeled in the ceramide portion by catalytic hydrogenation with Pd(OAc)2/NaB^3H4. The labeled sulfatide was mixed with unlabelled sulfatide to the required specific activity.
(§3) The fatty acid was removed from native pig brain sulfatide by weak alkaline methanolysis at 80° C. The formed lysosulfatide was, after chromatographic purification, reacylated with respective fatty acid chloride in aqueous sodium acetate-tetrahydrofuran.
(§4) These mice were 12 weeks old and the mean value of the highest blood glucose was […]. At sacrifice the mice were anaesthetized with CO2 and killed by dislocation of the neck vertebrae. This is outlined in Table 2. The liver and pancreas were dissected immediately. The organ were quick-frozen and thawed at analyses (within 4 days).
(§5) The organs were homogenized and the lipids extracted with chloroform/methanol/water. The lipid extracts were evaporated, re-dissolved in chloroform/methanol/water and separated by silica gel chromatography to remove other lipids. The sulfatide containing fraction was used for counting by scintillation.
(§6) The results of the scintillation measurement are presented in FIG. 6A and FIG. 6B—FIG. 6A presenting liver data and FIG. 6B pancreas data—as cpm uptake in total, cpm/mg wet weight of tissue, cpm/mg of tissue protein and % of given cpm residing in the organ

A short description of data set [3]: uptake of radiolabeled sulfatide analogues in pancreas after intraperitoneal injection. In kind it is in vivo. As to conditions: 150 nmol i.p., ob/ob mice, FIG. 6B; for degradation or accumulation in pancreas, 6 h vs 24 h: 6 h and 24 h after i.p.; for uptake in pancreas: tritium-labeled, scintillation counting.
From the text: as §1, §2, §3, §4, §5, §6

Data set [4] relates to insulin crystals. The data set can be described thus: in vitro preservation of insulin crystals stored with sulfatide isoforms. As to conditions: compared to C24:0 analogue, native pig brain sulfatide and insulin stored without sulfatide, FIG. 5. The source says:
The preservation of insulin crystals, a requirement for storage of an insulin pool that can be released upon raised blood glucose, is increased for sulfatide C16:0 compared to other sulfatide isoforms. […] This is illustrated in FIG. 5.

A short description of data set [5]: further uptake study of sulfatide analogues in pancreas (Example 3). Particulars: i.p., ob/ob mice; FIGS. 7-10. It counts as in vivo. The procedure: These experiments were performed as in Example 3, but only the uptake in pancreas was studies.
ob/ob mice was thus given C12, C14, C16 och C18 analogues of sulfatide intraperitoneally in the way described above.
The results are illustrated in FIGS. 7-10.

[6] abbreviates: listed as C16:0 sulfatide analogue.

For “galactosylceramide-3-O-sulfate [sulfatide]”, in data set [1], the “T-cell response to insulin” value is on record as “inhibited the T-cell response to insulin”.

Consider `CCCCCCCCCCCCC/C=C/[C@@H](O)[C@H](CO[C@@H]1O[C@H](CO)[C@H](O)[C@H](OS(=O)(=O)O)[C@H]1O)NC(=O)CCCCCCC` [C8:0 analogue], for which the “degradation or accumulation in liver, 6 h vs 24 h” value in data set [2] is “rapidly degraded”. Also, the uptake in liver result in data set [2] is “preferentially taken up in liver”; in data set [2] (listed as C8:0), “rapidly removed from circulation to the liver and degraded”. The “degradation or accumulation in pancreas, 6 h vs 24 h” value in data set [3] is “neither accumulation or degradation was noticed”; in data set [3] (listed as C8:0), “no accumulation”. Further, in data set [3], the uptake in pancreas entry is recorded as “much lower than for the other two analogues”.

For the compound `CCCCCCCCCCCCC/C=C/[C@@H](O)[C@H](CO[C@@H]1O[C@H](CO)[C@H](O)[C@H](OS(=O)(=O)O)[C@H]1O)NC(=O)CCCCCCCCCCCCCCC` [C16:0 analogue], the “preservation of insulin crystals” value in data set [4] is recorded as “significant effect on the preservation”; in data set [4] (listed as isoform of sulfatide with 16 carbon atoms in the fatty acid), “significant effect on the preservation of insulin crystals”. Further, the “degradation or accumulation in liver, 6 h vs 24 h” value in data set [2] is on record as “slight accumulation”. The uptake in liver entry in data set [2] is reported as “higher than for the C24:0”. For the same compound, in data set [5], the “uptake in pancreas (Example 3)” value is recorded as “most interesting results”. In addition, the “degradation or accumulation in pancreas, 6 h vs 24 h” value is given as “accumulation” in data set [3] (listed as C 16) and “accumulation after 24 hours” in data set [3] (setting [6]). Also, the uptake in pancreas entry in data set [3] (listed as C16) was “efficiently taken up in pancreas”; in data set [3] (setting [6]) it was “most efficiently taken up”.

`CCCCCCCCCCCCC/C=C/[C@@H](O)[C@H](CO[C@@H]1O[C@H](CO)[C@H](O)[C@H](OS(=O)(=O)O)[C@H]1O)NC(=O)CCCCCCCCCCCCCCCCCCCCCCC` [C24:0 analogue]: in data set [2], the “degradation or accumulation in liver, 6 h vs 24 h” value is “slight reduction” and the uptake in liver result was “lower uptake in liver as compared to the C8:0 analogue”. Moreover, in data set [3], the “degradation or accumulation in pancreas, 6 h vs 24 h” value is listed as “slight reduction” and the uptake in pancreas result is given as “efficiently taken up in pancreas”. Further, the “degradation or accumulation in pancreas, 6 h vs 24 h” value in data set [3] (listed as C24) is “slight degradation”.
